According to ChEMBL document CHEMBL3885881, “DrugMatrix”:

Species on record: Rattus norvegicus
Assay: DrugMatrix - Regimen: Daily Repeat
Format: toxicity, organism-based, Sprague-Dawley
Design: regimen Daily Repeat, gender Male, age 6-8 weeks
Conditions: in vivo, po, route oral GAVAGE, […]; for ABSOLUTE BASOPHIL / ABSOLUTE EOSINOPHIL / ABSOLUTE LYMPHOCYTE / ABSOLUTE MONOCYTE / ABSOLUTE SEGMENTED NEUTROPHIL / BASOPHIL / EOSINOPHIL / ERYTHROCYTE COUNT / HEMATOCRIT / HEMOGLOBIN / LEUKOCYTE COUNT / LYMPHOCYTE / MEAN CORPUSCULAR HEMOGLOBIN / MEAN CORPUSCULAR HEMOGLOBIN CONCENTRATION / MEAN CORPUSCULAR VOLUME / MONOCYTE / NEUTROPHIL / NUCLEATED RED BLOOD CELLS / PLATELET COUNT: tissue Blood; for ALANINE AMINOTRANSFERASE / ALBUMIN / ALKALINE PHOSPHATASE / ASPARTATE AMINOTRANSFERASE / BLOOD UREA NITROGEN / CARBON DIOXIDE / CHLORIDE / CHOLESTEROL / CREATINE PHOSPHOKINASE / CREATININE / GLUCOSE / LACTATE DEHYDROGENASE / LIPASE / PHOSPHORUS / POTASSIUM / SODIUM / TOTAL BILIRUBIN / TOTAL PROTEIN / URIC ACID: tissue Plasma
[1] = 24 mg/kg, 72 h, dose level Low, time 3 day
[2] = 24 mg/kg, 120 h, dose level Low, time 5 day
[3] = 93 mg/kg, 72 h, dose level High, time 3 day
[4] = 93 mg/kg, 120 h, dose level High, time 5 day

Cc1cccc(Nc2ccccc2C(=O)O)c1C [MEFENAMIC ACID]
ABSOLUTE BASOPHIL [1]: 0 CELLS/uL
ABSOLUTE EOSINOPHIL [1]: 120.67 CELLS/uL
ABSOLUTE LYMPHOCYTE [1]: 16868.33 CELLS/uL
ABSOLUTE MONOCYTE [1]: 133 CELLS/uL
ABSOLUTE SEGMENTED NEUTROPHIL [1]: 1478 CELLS/uL
BASOPHIL [1]: 0%
EOSINOPHIL [1]: 0.67%
ERYTHROCYTE COUNT [1]: 5.76 x10E6/uL
HEMATOCRIT [1]: 38.77%
HEMOGLOBIN [1]: 15.4 G/DL
LEUKOCYTE COUNT [1]: 18.6 x10E3/uL
LYMPHOCYTE [1]: 90.67%
MEAN CORPUSCULAR HEMOGLOBIN [1]: 26.73 pg
MEAN CORPUSCULAR HEMOGLOBIN CONCENTRATION [1]: 39.73 G/DL
MEAN CORPUSCULAR VOLUME [1]: 67.37 fL
MONOCYTE [1]: 0.67%
NEUTROPHIL [1]: 8%
NUCLEATED RED BLOOD CELLS [1]: 0 /100WBC
PLATELET COUNT [1]: 1314.33 x10E3/uL
ALANINE AMINOTRANSFERASE [1]: 80.67 u/L
ALBUMIN [1]: 4.33 G/DL
ALKALINE PHOSPHATASE [1]: 454.67 u/L
ASPARTATE AMINOTRANSFERASE [1]: 99.67 u/L
BLOOD UREA NITROGEN [1]: 12 mg/dL
CARBON DIOXIDE [1]: 32 mmol/L
CHLORIDE [1]: 102.33 MEQ/L
CHOLESTEROL [1]: 71 mg/dL
CREATINE PHOSPHOKINASE [1]: 725 u/L
CREATININE [1]: 0.28 mg/dL
GLUCOSE [1]: 165.67 mg/dL
LACTATE DEHYDROGENASE [1]: 174.67 u/L
LIPASE [1]: 13 u/L
PHOSPHORUS [1]: 13.37 mg/dL
POTASSIUM [1]: 6.54 MEQ/L
SODIUM [1]: 146.73 MEQ/L
TOTAL BILIRUBIN [1]: 0.2 mg/dL
TOTAL PROTEIN [1]: 6 G/DL
URIC ACID [1]: 1.83 mg/dL
ABSOLUTE BASOPHIL [2]: 0 CELLS/uL
ABSOLUTE EOSINOPHIL [2]: 0 CELLS/uL
ABSOLUTE LYMPHOCYTE [2]: 17204 CELLS/uL
ABSOLUTE MONOCYTE [2]: 113.33 CELLS/uL
ABSOLUTE SEGMENTED NEUTROPHIL [2]: 1482.67 CELLS/uL
BASOPHIL [2]: 0%
EOSINOPHIL [2]: 0%
ERYTHROCYTE COUNT [2]: 5.87 x10E6/uL
HEMATOCRIT [2]: 36.9%
HEMOGLOBIN [2]: 14.47 G/DL
LEUKOCYTE COUNT [2]: 18.8 x10E3/uL
LYMPHOCYTE [2]: 91.33%
MEAN CORPUSCULAR HEMOGLOBIN [2]: 24.67 pg
MEAN CORPUSCULAR HEMOGLOBIN CONCENTRATION [2]: 39.23 G/DL
MEAN CORPUSCULAR VOLUME [2]: 62.87 fL
MONOCYTE [2]: 0.67%
NEUTROPHIL [2]: 8%
NUCLEATED RED BLOOD CELLS [2]: 0.33 /100WBC
PLATELET COUNT [2]: 1359 x10E3/uL
ALANINE AMINOTRANSFERASE [2]: 61.67 u/L
ALBUMIN [2]: 4.17 G/DL
ALKALINE PHOSPHATASE [2]: 457.33 u/L
ASPARTATE AMINOTRANSFERASE [2]: 87.33 u/L
BLOOD UREA NITROGEN [2]: 13.33 mg/dL
CARBON DIOXIDE [2]: 31.33 mmol/L
CHLORIDE [2]: 101.67 MEQ/L
CHOLESTEROL [2]: 67.67 mg/dL
CREATINE PHOSPHOKINASE [2]: 379.33 u/L
CREATININE [2]: 0.19 mg/dL
GLUCOSE [2]: 144.67 mg/dL
LACTATE DEHYDROGENASE [2]: 449.33 u/L
LIPASE [2]: 11.33 u/L
PHOSPHORUS [2]: 11.87 mg/dL
POTASSIUM [2]: 6.54 MEQ/L
SODIUM [2]: 145.2 MEQ/L
TOTAL BILIRUBIN [2]: 0.2 mg/dL
TOTAL PROTEIN [2]: 5.97 G/DL
URIC ACID [2]: 1.43 mg/dL
ABSOLUTE BASOPHIL [3]: 0 CELLS/uL
ABSOLUTE EOSINOPHIL [3]: 46.33 CELLS/uL
ABSOLUTE LYMPHOCYTE [3]: 12604 CELLS/uL
ABSOLUTE MONOCYTE [3]: 348.67 CELLS/uL
ABSOLUTE SEGMENTED NEUTROPHIL [3]: 1701 CELLS/uL
BASOPHIL [3]: 0%
EOSINOPHIL [3]: 0.33%
ERYTHROCYTE COUNT [3]: 5.47 x10E6/uL
HEMATOCRIT [3]: 35.43%
HEMOGLOBIN [3]: 13.77 G/DL
LEUKOCYTE COUNT [3]: 14.7 x10E3/uL
LYMPHOCYTE [3]: 85.67%
MEAN CORPUSCULAR HEMOGLOBIN [3]: 25.17 pg
MEAN CORPUSCULAR HEMOGLOBIN CONCENTRATION [3]: 38.9 G/DL
MEAN CORPUSCULAR VOLUME [3]: 64.77 fL
MONOCYTE [3]: 2.33%
NEUTROPHIL [3]: 11.67%
NUCLEATED RED BLOOD CELLS [3]: 0.33 /100WBC
PLATELET COUNT [3]: 1191.33 x10E3/uL
ALANINE AMINOTRANSFERASE [3]: 64.33 u/L
ALBUMIN [3]: 3.93 G/DL
ALKALINE PHOSPHATASE [3]: 288.33 u/L
ASPARTATE AMINOTRANSFERASE [3]: 83 u/L
BLOOD UREA NITROGEN [3]: 11 mg/dL
CARBON DIOXIDE [3]: 34 mmol/L
CHLORIDE [3]: 101.67 MEQ/L
CHOLESTEROL [3]: 82 mg/dL
CREATINE PHOSPHOKINASE [3]: 546.33 u/L
CREATININE [3]: 0.16 mg/dL
GLUCOSE [3]: 149 mg/dL
LACTATE DEHYDROGENASE [3]: 123 u/L
LIPASE [3]: 11 u/L
PHOSPHORUS [3]: 12.4 mg/dL
POTASSIUM [3]: 6.65 MEQ/L
SODIUM [3]: 145.07 MEQ/L
TOTAL BILIRUBIN [3]: 0.17 mg/dL
TOTAL PROTEIN [3]: 5.63 G/DL
URIC ACID [3]: 1.57 mg/dL
ABSOLUTE BASOPHIL [4]: 0 CELLS/uL
ABSOLUTE EOSINOPHIL [4]: 0 CELLS/uL
ABSOLUTE LYMPHOCYTE [4]: 16873.67 CELLS/uL
ABSOLUTE MONOCYTE [4]: 0 CELLS/uL
ABSOLUTE SEGMENTED NEUTROPHIL [4]: 1459.67 CELLS/uL
BASOPHIL [4]: 0%
EOSINOPHIL [4]: 0%
ERYTHROCYTE COUNT [4]: 5.73 x10E6/uL
HEMATOCRIT [4]: 35.9%
HEMOGLOBIN [4]: 14.23 G/DL
LEUKOCYTE COUNT [4]: 18.33 x10E3/uL
LYMPHOCYTE [4]: 92%
MEAN CORPUSCULAR HEMOGLOBIN [4]: 24.87 pg
MEAN CORPUSCULAR HEMOGLOBIN CONCENTRATION [4]: 39.63 G/DL
MEAN CORPUSCULAR VOLUME [4]: 62.73 fL
MONOCYTE [4]: 0%
NEUTROPHIL [4]: 8%
NUCLEATED RED BLOOD CELLS [4]: 0.33 /100WBC
PLATELET COUNT [4]: 1419 x10E3/uL
ALANINE AMINOTRANSFERASE [4]: 66.67 u/L
ALBUMIN [4]: 4.3 G/DL
ALKALINE PHOSPHATASE [4]: 382.67 u/L
ASPARTATE AMINOTRANSFERASE [4]: 85 u/L
BLOOD UREA NITROGEN [4]: 11.67 mg/dL
CARBON DIOXIDE [4]: 31.67 mmol/L
CHLORIDE [4]: 101.33 MEQ/L
CHOLESTEROL [4]: 76.67 mg/dL
CREATINE PHOSPHOKINASE [4]: 196.33 u/L
CREATININE [4]: 0.14 mg/dL
GLUCOSE [4]: 143 mg/dL
LACTATE DEHYDROGENASE [4]: 166.33 u/L
LIPASE [4]: 11.33 u/L
PHOSPHORUS [4]: 12.5 mg/dL
POTASSIUM [4]: 6.98 MEQ/L
SODIUM [4]: 144.2 MEQ/L
TOTAL BILIRUBIN [4]: 0.17 mg/dL
TOTAL PROTEIN [4]: 6.23 G/DL
URIC ACID [4]: 2.33 mg/dL
